Assay results from publication PMC8380212, “^18F-labeled tracers targeting fibroblast activation protein” (EJNMMI Radiopharmacy and Chemistry, 2021).

Key:
[1] = Determination of logD values (1-octanol / PBS); format: physicochemical; conditions: 1-octanol / phosphate buffered saline, pH 7.4
Experimental: All experiments for the determination of logD values were performed in triplicate. For the determination by means of radioactivity, around 5 × 10^6 cpm in ca. 1 µL of radioactive stock solutions (water/acetonitrile 1:1) were added to 100 µL phosphate buffered saline (PBS, pH 7.4) and 100 µL of 1-octanol. The mixture was vortexed for 1 min, followed by 5 min of centrifugation for phase separation. A sample of each phase (10 or 50 µL) was measured for radioactivity per volume (Packard Cobra II Autogamma, GMI Inc., USA). In case of FAPI-72 and -73, the reference compounds [^19F]-FAPI-72 and -73 were dissolved in PBS at a concentration of 1 mg/mL. 50 µL of these solutions were each mixed with 50 µL 1-octanol and processed by vortexing and centrifugation as described above. 1 µL of each phase was analyzed by HPLC and the individual content of compound was determined by peak integration. The area under the peaks of the individual runs was used to calculate the log D value.
Fig. 1 Overview of the synthesized precursors discussed in this study. The corresponding log D values were determined by detection of the radiolabeled tracer in 1-octanol and phosphate buffered saline (pH 7). For values labeled with an asterix, the log D was calculated from the relative content of the non-radioactive reference standards in the 1-octanol and the water phase by HPLC analysis and peak integration TEXT PRINTED IN THE PICTURE: FAPI-42: LOG D: -1.63±0.06 | FAPI-52: LOG D: -1.90±0.02 | FAPI-72: LOG D: 1.20±0.01* | FAPI-73: LOG D: 1.13±0.05* | FAPI-74: LOG D: -2.42±0.03 | FAPI-75: LOG D: -3.36±0.12 | FAPI-76: LOG D: -2.86±0.07

[2] = target: T1, FAP‐transfected HT‐1080‐FAP cells (Homo sapiens, UniProt Q12884); assay: In vitro binding/uptake on FAP-transfected HT-1080-FAP cells; format: cell-based; conditions: HT1080-FAP cells; for uptake 10 min: 10 min incubation; for uptake 60 min: 60 min incubation; for uptake 120 min: 120 min incubation; for uptake, measurement at 90 min: printed in 120 min column, footnote a: 90 min
T1 construct: expressed in transfected cells; host or cells: HT-1080 cells transfected with FAP (HT-1080-FAP)
T1 sequence (Q12884 1-760): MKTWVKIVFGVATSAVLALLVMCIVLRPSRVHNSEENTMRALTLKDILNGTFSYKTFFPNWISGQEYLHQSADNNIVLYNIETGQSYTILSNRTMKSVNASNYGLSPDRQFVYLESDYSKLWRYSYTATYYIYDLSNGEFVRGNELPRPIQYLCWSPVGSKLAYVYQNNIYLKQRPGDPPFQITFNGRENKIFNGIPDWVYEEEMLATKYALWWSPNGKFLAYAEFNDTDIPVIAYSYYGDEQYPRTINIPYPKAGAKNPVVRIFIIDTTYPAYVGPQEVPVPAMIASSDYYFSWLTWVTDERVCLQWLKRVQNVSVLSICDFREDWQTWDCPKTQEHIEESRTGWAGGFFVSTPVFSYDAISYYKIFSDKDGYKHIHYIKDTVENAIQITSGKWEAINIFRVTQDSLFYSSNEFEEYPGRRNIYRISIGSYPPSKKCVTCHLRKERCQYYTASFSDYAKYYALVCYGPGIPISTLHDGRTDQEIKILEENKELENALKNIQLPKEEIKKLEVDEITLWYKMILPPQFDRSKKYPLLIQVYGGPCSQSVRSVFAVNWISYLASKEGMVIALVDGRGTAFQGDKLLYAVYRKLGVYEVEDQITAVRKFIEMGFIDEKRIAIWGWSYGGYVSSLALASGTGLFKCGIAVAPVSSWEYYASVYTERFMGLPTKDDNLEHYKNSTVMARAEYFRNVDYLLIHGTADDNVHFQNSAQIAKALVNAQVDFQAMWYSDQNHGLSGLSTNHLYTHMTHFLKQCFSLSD
Experimental: (§1) The binding properties of the FAPI derivatives were evaluated using the FAP‐transfected HT‐1080‐FAP and CD26 expressing HEK-CD26 cells. All cells were cultivated in Dulbecco's modified Eagle's medium (DMEM) containing 10% fetal calf serum (FCS) at 37 °C/5% carbon dioxide. Cells were seeded in 6-well plates and cultivated to a final confluence of approximately 80–90% (1.2 to 2.0 × 10^6 cells/well). After washing with FCS free medium, for each well ca. 3 kBq of the radiolabeled compound (10–20 GBq/µmol for [^18F]AlF-labeling) was added to the cells in FCS free medium. On completion of the individual incubation time, cells were washed with PBS and treated with 1.4 mL lysis buffer (0.3 m NaOH, 0.2% SDS) before being transferred to measuring tubes. Competition experiments were performed by co-incubation with the unlabeled precursor for 60 min. Radioactivity was determined in a Wizard Gamma Counter (Perkin Elmer), normalized to 10^6 cells and calculated as percentage of the applied dose (%AD). Each experiment was performed in triplicate.

FAP (HT-1080-FAP cells) = target: T2, FAP (HT-1080-FAP cells) (Homo sapiens, UniProt Q12884); assay: Competition experiments with unlabeled precursor on HT-1080-FAP cells; format: binding; conditions: co-incubation with unlabeled precursor for 60 min
T2 construct: expressed in transfected cells; host or cells: HT-1080 cells transfected with FAP (HT-1080-FAP)
T2 sequence (Q12884 1-760): T1 sequence (Q12884 1-760)
Experimental: as §1

HT-1080-FAP xenografts = assay: Small animal PET imaging; format: in vivo, BALB/c nu/nu mice; conditions: for Tumor Uptake (SUVmean) 8 min / Tumor Uptake (SUVmean) 22 min / Tumor Uptake (SUVmean) 57 min / Tumor Uptake (SUVmean) 120 min: HT1080-FAP transplanted nude mice
Experimental: Eight-week-old BALB/c nu/nu mice (Charles River) were subcutaneously inoculated with 5 × 10^6 HT-1080-FAP cells. The subcutaneous xenografts were grown at the flanks of the mice. Xenografts were grown to a tumor diameter of 10–15 mm. Mice were anesthetized using isoflurane inhalation. 5–10 MBq of the [^18F]AlF-labeled compounds/ the respective tracer (FAPI-42/52/74/75/76; approx. 0.5 nmol; Am approximately 10–20 GBq/µmol) were injected intravenously for PET imaging. In vivo competition (blocking) experiments with ^68 Ga-FAPI-74 (9 MBq; 18.2 GBq/µmol) were performed by adding 30 nmol of unlabeled FAPI-74 to the injection solution. Images were acquired using a small-animal PET scanner (Inveon, Siemens). Within the first 60 min p.i., a dynamic scan was performed in list mode, followed by a static scan from 120–140 min post injection. Images were reconstructed iteratively using the 3D-OSEM + MAP method (Siemens) and were converted to standardized uptake value (SUV). For the dynamic analysis, 28 frames were reconstructed. Quantification was based on ROI analysis and expressed as SUV.
SUPPLEMENTAL TABLE 1: Tumor-SUVmean values of all mentioned ^18F labeled FAPI-derivatives in HT1080-FAP transplanted nude mice at different time points. The time points 8 min, 22 min and 57 min were selected from the applied 28-frame 3D-OSEM+MAP (Siemens) reconstruction method.

[3] = test system: U87MG- and A549-xenograft models; conditions: in vivo; cited from earlier work
[4] = target: T3, CD26 expressing HEK-CD26 cells (Homo sapiens, UniProt P27487); assay: In vitro binding on HEK-CD26 cells (negative control); format: cell-based
T3 construct: expressed in transfected cells; host or cells: HEK cells transfected with CD26/DPP4 (HEK-CD26)
Experimental: as §1

wild type HT1080 cells = assay: In vitro binding on wild type HT1080 cells (negative control); format: cell-based
Experimental: as §1
Table 1 summarizes the uptake and EC50 values of the discussed ^18F-labeled FAPI derivatives using the FAP-transfected cell line HT-1080-FAP. Additionally, the lead candidates FAPI-74 to -76 were tested on HEK-CD26 as well as -74 and -75 on wild type HT1080 cells as negative control. […] For FAPI-74, a plateau was already reached after approximately 10 min with 27.2 ± 0.88%AD/10^6cells. […] The EC50 values were all in the low to sub-nanomolar range. Only a neglectable fraction of FAPIs 74–76 were detected on HEK-CD26 cells (0.18–0.24%) as well as on wildtype HT1080 in case of -74 and 75 (< 0.1%).

[5] = radiolabeled tracer detected by radioactivity in 1-octanol and phosphate buffered saline
[6] = non-radioactive reference standards, 1-octanol and water phase, HPLC analysis and peak integration (asterisk)
[7] = small animal PET, HT-1080-FAP xenograft

T3 sequence (P27487 whole entry): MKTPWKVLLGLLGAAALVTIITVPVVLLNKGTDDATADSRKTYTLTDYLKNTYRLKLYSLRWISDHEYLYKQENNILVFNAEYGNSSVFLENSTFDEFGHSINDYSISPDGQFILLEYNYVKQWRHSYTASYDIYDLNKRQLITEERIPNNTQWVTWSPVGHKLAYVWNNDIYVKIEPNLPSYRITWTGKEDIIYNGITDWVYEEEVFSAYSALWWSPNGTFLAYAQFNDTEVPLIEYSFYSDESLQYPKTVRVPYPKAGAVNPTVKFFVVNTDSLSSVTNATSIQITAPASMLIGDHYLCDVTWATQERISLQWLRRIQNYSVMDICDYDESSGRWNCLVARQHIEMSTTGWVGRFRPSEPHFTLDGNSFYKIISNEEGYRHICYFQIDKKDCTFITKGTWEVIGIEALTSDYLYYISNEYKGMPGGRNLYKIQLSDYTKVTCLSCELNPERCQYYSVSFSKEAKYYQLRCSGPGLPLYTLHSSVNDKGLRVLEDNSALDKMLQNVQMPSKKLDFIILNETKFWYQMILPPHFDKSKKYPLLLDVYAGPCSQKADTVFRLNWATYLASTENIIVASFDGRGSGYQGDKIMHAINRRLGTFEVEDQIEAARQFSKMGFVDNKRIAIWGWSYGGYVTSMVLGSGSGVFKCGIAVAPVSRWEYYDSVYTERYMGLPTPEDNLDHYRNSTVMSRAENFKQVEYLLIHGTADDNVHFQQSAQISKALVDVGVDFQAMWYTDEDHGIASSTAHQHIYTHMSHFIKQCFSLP

Row | Compound | logD [1, 5] | uptake 10 min [2] [%AD/10^6 cells] | uptake 60 min [2] [%AD/10^6 cells] | uptake 120 min [2] [%AD/10^6 cells] | EC50 (FAP (HT-1080-FAP cells)) [nM] | Tumor Uptake (SUVmean) 8 min (HT-1080-FAP xenografts) | Tumor Uptake (SUVmean) 22 min (HT-1080-FAP xenografts) | Tumor Uptake (SUVmean) 57 min (HT-1080-FAP xenografts) | Tumor Uptake (SUVmean) 120 min (HT-1080-FAP xenografts) | logD [1, 6] | uptake, measurement at 90 min [2] | detectability of tumor region in PET (HT-1080-FAP xenografts; [7]) | further results
1 | N#C[C@@H]1CC(F)(F)CN1C(=O)CNC(=O)c1ccnc2ccc(OCCCN3CCN(C(=O)CN4CCN(CC(=O)O)CCN(CC(=O)O)CC4)CC3)cc12 [FAPI-42] | -1.63 ± 0.06 | 40.0 ± 1.73 | 61.2 ± 1.76 | 58.0 ± 2.24 | 3.3 | 1.05 | 1.0 | 0.73 | 0.60 |  |  |  | tumor uptake SUVmean at early timepoints (HT-1080-FAP xenografts; small animal PET screening, early timepoints): approx. 1.0; elimination and bone accumulation [3]: hepatobiliary elimination together with an accumulation in the bone
2 | CN(CCCN1CCN(C(=O)CN2CCN(CC(=O)O)CCN(CC(=O)O)CC2)CC1)c1ccc2nccc(C(=O)NCC(=O)N3CC(F)(F)C[C@H]3C#N)c2c1 [FAPI-52] | -1.9 ± 0.02 | 32.0 ± 0.28 | 45.9 ± 0.54 | 53.2 ± 1.38 | 3.2 | 0.65 | 0.55 | 0.47 | 0.20 |  |  |  | 
3 | CN(CCCN1CCN(C(=O)c2ccc([N+](C)(C)C)nc2)CC1)c1ccc2nccc(C(=O)NCC(=O)N3CC(F)(F)C[C@H]3C#N)c2c1 [FAPI-72] |  | 13.9 ± 0.60 | 23.6 ± 0.40 |  | < 1 | 0.19 | 0.15 | 0.13 | 0.1 | 1.2 ± 0.01 | 24.4 ± 0.30^a %AD/10^6 cells | hardly detectable | 
4 | C[N+](C)(C)c1ccc(C(=O)N2CCN(CCCOc3ccc4nccc(C(=O)NCC(=O)N5CC(F)(F)C[C@H]5C#N)c4c3)CC2)cn1 [FAPI-73] |  | 22.7 ± 0.24 | 39.2 ± 0.48 |  | < 1 | 0.45 | 0.44 | 0.42 | 0.33 | 1.13 ± 0.05 | 39.6 ± 0.95^a %AD/10^6 cells | hardly detectable | 
5 | N#C[C@@H]1CC(F)(F)CN1C(=O)CNC(=O)c1ccnc2ccc(OCCCN3CCN(C(=O)[C@H](CC(C(=O)O)C(=O)O)NC(=O)CN4CCN(CC(=O)O)CCN(CC(=O)O)CC4)CC3)cc12 [FAPI-75] | -3.36 ± 0.12 | 34.9 ± 0.26 | 74.0 ± 2.07 | 82.35 ± 3.61 | 3.1 | 1.55 | 2.06 | 2.24 | 1.9 |  |  |  | uptake CD26 [4]: 0.18 ± 0.02 %AD/10^6 cells; uptake WT (wild type HT1080 cells; wild type HT1080 control cells): 0.06 ± 0.01 %AD/10^6 cells; fraction detected on wildtype HT1080 (wild type HT1080 cells; wildtype HT1080, text): < 0.1%; excretion pathway (HT-1080-FAP xenografts; small animal PET in tumor bearing mice): favorable renal excretion; tumor uptake SUVmean (HT-1080-FAP xenografts; small animal PET screening, discussion): approx. 2.0; tumor-SUV max (HT-1080-FAP xenografts; [7]): 3.7; tumor-SUV mean (HT-1080-FAP xenografts; [7]): 2.2
